Data published in patent US8017785B2, “Salt forms of (2S)-(4E)-N-methyl-5-[3-(5-isopropoxypyridin)y1]-4-penten 2-amine” (AstraZeneca AB, priority 2006, dated 2011).

Molecular target: CNS nicotinic receptors
Experiment: Determination of binding to relevant receptor sites
Details: free base used to prepare the salts
Method: Receptor binding constants provide a measure of the ability of the compound to bind to half of the relevant receptor sites of certain brain cells of the patient. See, Cheng, et al., Biochem. Pharmacol. 22:3099 (1973). The (2S)-(4E)-N-methyl-5-[3-(5-isopropoxypyridin)yl]-4-penten-2-amine compound used to prepare the salts has extremely high affinity for the relevant receptors, with a binding affinity in the low nM range.
Binding of the compounds to relevant receptor sites was determined in accordance with the techniques described in U.S. Pat. No. 6,953,855 to Mazurov et al Inhibition constants (Ki values), reported in nM, were calculated from the IC50 values using the method of Cheng et al., Biochem, Pharmacol. 22:3099 (1973).

binding affinity (receptor binding constant, Ki): low nM range
Structure (SMILES): CN[C@@H](C)C/C=C/c1cncc(OC(C)C)c1 [(2S)-(4E)-N-methyl-5-[3-(5-isopropoxypyridin)yl]-4-penten-2-amine]
